Test results published in US7745450B2, “Pyrazolo[4,3-d]pyrimidines, processes for their preparation and methods for therapy” (Institute of Experimental Botany, priority 2002, dated 2010).
Where two headings read alike, the source gives them in different places.

What was measured:
[1] = test system: Cytokinin-dependent tobacco callus Nicotiana tabacum L. cv. Wisconsins 38; assay: Tobacco callus bioassay for cytotoxicity (herbicidal activity); assay type: cell-based
Method: The novel compounds have also been tested in tobacco callus bioassay for cytotoxicity (herbicidal activity) and induction of cell death. The compounds to be tested were dissolved in dimethylsulfoxide (DMSO) and the solution brought up to 10^−3 M with distilled water. […] Cytokinin-dependent tobacco callus Nicotiana tabacum L. cv. Wisconsins 38 Murashige-Skoog medium, containing per 1 liter: 4 μmol nicotinic acid, 2.4 μmol pyridoxine hydrochloride, 1.2 μmol thiamine, 26.6 μmol glycine, 1.37 μmol glutamine, 1.8 μmol myo.inositol, 30 g of sucrose, 8 g of agar, […] α-naphthylacetic acid and 0.5 μmol 6-benzylaminopurine. Sub cultivation was carried out every three weeks. Fourteen days before the bioassay, the callus tissue was transferred to the media without 6-benzylaminopurine. Compounds were tested with two different concentrations of 6-benzylaminopurine (10^−5 M and 10^−6 M). Inhibitory growth activity was determined from the increase in fresh callus weight after four weeks of cultivation. Five replicates were prepared for each concentration tested and the entire test was repeated at least twice.

cdk1/cyclin B (CDC2) = cdk1/cyclin B (CDC2) (Homo sapiens, UniProt P06493); assay: CDK inhibition assay, cdk1/cyclin B (CDC2) kinase, histone phosphorylation; assay type: biochemical
Method: Selected compounds were tested for cdk1/cyclin B and cdk2/cyclin E inhibitory activity to determine the basic relationships between their interaction energy of docked complex and the inhibitory activity. Cdk2/cyclin E complex was produced in SIP insect cells co-infected with appropriate baculoviral construct. The cells were harvested 70 hours post infection in lysis buffer (50 mM Tris 7.4 pH, 150 mM NaCl, 5 mM EDTA, 20 mM NaF, 1% Tween 20, protease inhibitors) for 30 min on ice and the soluble fraction was recovered by centrifugation at 14.000 g for 10 min. The protein extract was stored at −80° C. until use. The final point test system for kinase activity measurement was used to carry out experiments on the kinetics under linear conditions. The assay mixture contained 1 mg/ml histone (Sigma Type III-S), 15 μM ATP, 0.2 μCi [γ-^32P] ATP and tested compound in a final volume of 20 μl, all in reaction buffer: 50 mM Hepes 7.4 pH, 10 mM MgCl2, 5 mM EGTA, 10 mM 2-glycerolphosphate, 1 mM NaF, 1 mM DTT and protease inhibitors. […] The measurement of kinase inhibition employed the digital imaging analyzer BAS 1800. The kinase activity was expressed as a percentage of maximum activity and the IC50 value was determined by graphic analysis. The kinase activity is expressed as a percentage of maximum activity, the apparent inhibition constants are determined by graphic analysis from dose-response curves presented on FIG. 1.

IκB-α kinase = IκB-α kinase inhibition, in vitro kinase assay; assay type: biochemical
[2] = Nicotiana tabacum, 672 h, read-out: 10^−5 M BAP IC50, 10^−5 M 6-benzylaminopurine, four weeks
[3] = Nicotiana tabacum, 672 h, read-out: 10^−6 M BAP IC50, 10^−6 M 6-benzylaminopurine, four weeks

Sequence of cdk1/cyclin B (CDC2) (P06493 whole entry, species assumed): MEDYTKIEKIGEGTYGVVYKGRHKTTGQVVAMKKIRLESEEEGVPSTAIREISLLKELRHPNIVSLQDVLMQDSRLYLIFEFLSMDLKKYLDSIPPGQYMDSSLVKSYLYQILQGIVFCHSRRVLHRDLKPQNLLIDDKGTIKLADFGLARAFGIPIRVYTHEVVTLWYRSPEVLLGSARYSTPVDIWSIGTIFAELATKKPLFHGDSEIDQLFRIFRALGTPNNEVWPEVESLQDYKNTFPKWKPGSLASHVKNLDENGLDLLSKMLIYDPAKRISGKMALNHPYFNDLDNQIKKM
Sequence of cdk1/cyclin B (CDC2) (P14635 whole entry partner, species assumed): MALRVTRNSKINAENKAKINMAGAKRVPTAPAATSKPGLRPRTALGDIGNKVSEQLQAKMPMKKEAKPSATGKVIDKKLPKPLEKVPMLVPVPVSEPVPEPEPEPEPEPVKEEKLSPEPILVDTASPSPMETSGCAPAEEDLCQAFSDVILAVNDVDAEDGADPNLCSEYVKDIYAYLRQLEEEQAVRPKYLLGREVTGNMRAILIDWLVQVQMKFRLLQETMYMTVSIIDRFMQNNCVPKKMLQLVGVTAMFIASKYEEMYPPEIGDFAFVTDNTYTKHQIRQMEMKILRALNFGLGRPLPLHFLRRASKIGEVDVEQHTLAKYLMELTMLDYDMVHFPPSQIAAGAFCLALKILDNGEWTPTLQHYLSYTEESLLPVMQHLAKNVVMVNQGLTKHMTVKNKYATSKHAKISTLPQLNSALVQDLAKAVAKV

| Compound | IC50 [1, 2] | IC50 [1, 3] | IC50 (cdk1/cyclin B (CDC2)) | IC50 (IκB-α kinase) | IC50 ([1]; read-out: 10^−5 M BAP IC50, 10^−5 M 6-benzylaminopurine, four weeks) |
| --- | --- | --- | --- | --- | --- |
| CC(C)c1n[nH]c2c(Nc3ccc(C(=O)O)c(Cl)c3)nc(N[C@@H](CO)C(C)C)nc12 | 26 µM | 1.4 µM | 0.9 nM | 2 nM |  |
| CC(C)c1n[nH]c2c(Nc3ccc(N)c(Cl)c3)nc(N[C@@H](CO)C(C)C)nc12 | 16 µM | 0.9 µM | 2 nM | 3 nM |  |
| CC(C)c1n[nH]c2c(Nc3cc(N)cc(Cl)c3)nc(N[C@@H](CO)C(C)C)nc12 | 38 µM | 4.2 µM | 8 nM | 15 nM |  |
| CC(C)c1n[nH]c2c(Nc3cccc(Cl)c3)nc(N[C@@H](CO)C(C)C)nc12 | > 50 µM | 11 µM | 4 nM | 9 nM |  |
| CC(C)c1n[nH]c2c(Nc3ccc(Br)cc3)nc(N[C@@H](CO)C(C)C)nc12 | > 50 µM | > 50 µM | 2 nM | 3 nM |  |
| CC(C)c1n[nH]c2c(Nc3ccc(Cl)cc3)nc(N[C@@H](CO)C(C)C)nc12 | 24 µM | 2.3 µM | 0.5 nM | 1 nM |  |
| CC(C)c1n[nH]c2c(Nc3ccccc3)nc(N[C@@H](CO)C(C)C)nc12 | 42 µM | 4.8 µM | 1 nM | 3 nM |  |
| Cc1n[nH]c2c(NCc3ccccc3)nc(N[C@@H](CO)C(C)C)nc12 | > 50 µM | 28 µM | 10 nM | 20 nM |  |
| CC[C@H](CO)Nc1nc(NCc2ccccc2C(C)=O)c2[nH]nc(C(C)C)c2n1 |  |  | 5 nM | 15 nM |  |
| CC[C@H](CO)Nc1nc(NCc2c(N)cccc2Cl)c2[nH]nc(C(C)C)c2n1 | > 50 µM | 29.7 µM | 12 nM | 3.5 nM |  |
| CC[C@H](CO)Nc1nc(NCc2ccccc2O)c2[nH]nc(C(C)C)c2n1 |  |  | 8 nM | 12 nM |  |
| CC[C@H](CO)Nc1nc(NCc2ccc(Cl)c(O)c2O)c2[nH]nc(C(C)C)c2n1 |  |  | 3 nM | 11 nM |  |
| CC[C@H](CO)Nc1nc(NCc2ccc(OC)c(O)c2O)c2[nH]nc(C(C)C)c2n1 |  |  | 2 nM | 5 nM |  |
| CC[C@H](CO)Nc1nc(NCc2cc(O)c(OC)cc2O)c2[nH]nc(C(C)C)c2n1 |  |  | 2 nM | 6 nM |  |
| CC[C@H](CO)Nc1nc(NCc2c(O)cc(OC)cc2O)c2[nH]nc(C(C)C)c2n1 |  |  | 0.8 nM | 3 nM |  |
| CC[C@H](CO)Nc1nc(NCc2cccc(C(C)=O)c2)c2[nH]nc(C(C)C)c2n1 |  |  | 10 nM | 40 nM |  |
| CC[C@H](CO)Nc1nc(NCc2ccc(Cl)c(N)c2)c2[nH]nc(C(C)C)c2n1 | 25.7 µM | 1.3 µM | 80 nM | 24 nM |  |
| CC[C@H](CO)Nc1nc(Nc2cccc(Cl)c2)c2[nH]nc(C(C)C)c2n1 | 45 µM |  | 4 nM |  | > 50 µM |
| CC[C@H](CO)Nc1nc(NCc2ccc(O)c(O)c2)c2[nH]nc(C(C)C)c2n1 |  |  | 500 nM | 1100 nM |  |
| CC[C@H](CO)Nc1nc(NCc2ccccc2)c2[nH]nc(C)c2n1 | > 50 µM | 37 µM | 100 nM | 300 nM |  |
| CC(C)c1n[nH]c2c(NC(CO)c3ccccc3)nc(N[C@@H](CO)C(C)C)nc12 (mixture of isomers) |  |  | 60 nM | 150 nM |  |
| CC[C@H](CO)Nc1nc(NC(CO)c2ccccc2)c2[nH]nc(C(C)C)c2n1 (mixture of isomers) |  |  | 90 nM | 210 nM |  |
| Cc1n[nH]c2c(NC(CO)c3ccccc3)nc(NCCO)nc12 (racemic) |  |  | 200 nM | 400 nM |  |
| Cc1n[nH]c2c(Nc3ccccc3)nc(NCCO)nc12 [2-hydroxyethylamino; anilino; methyl] |  |  | 90 nM | 210 nM |  |
| Cc1n[nH]c2c(NCc3ccccc3)nc(NCCO)nc12 [2-hydroxyethylamino; benzylamino; methyl] |  |  | 4000 nM | 9300 nM |  |
| CC(C)c1n[nH]c2c(NCc3ccccc3)nc(NC3CCC(N)CC3)nc12 (stereo not shown) [Compound 268, 3-isopropyl-5-(4-aminocyclohexylamino)-7-benzylamino-pyrazolo[4,3-d]pyrimidine] | > 50 µM | 32 µM | 5 nM |  |  |
